Data taken from patent US20080206287A1, “Use of cyclosporin A to sensitize resistant cancer cells to death receptor ligands” (priority 2006, published 2008).
Entries after “also recorded” stand apart in the source; their conditions may differ.

Assays:
FLIP = FLIP protein immunoblot; format: cell-based, human; conditions: for levels of FLIP protein (long isoform): PPC-1 cells, with or without CH-11, 24 hours, immunoblot
Experimental: Immunoblot analysis. Protein extracts were obtained by washing cells with phosphate-buffered saline (PBS) [pH 7.4] and suspending the cells in lysis buffer [10 mM Tris (pH 7.4), 150 mM NaCl, 0.1% Triton X-100, 0.5% sodium deoxycholate, and 5 mM EDTA] containing protease inhibitors (Complete tablets; Roche, Indianapolis, Ind.). Immunoblot assays were performed as described in Carter et al. (Blood 105:4043-4050, 2005). Briefly, equal amounts of protein as determined by a Bradford assay (Bradford, Anal. Biochem. 72:248-54, 1976) were subjected to SDS-PAGE (4-20% gradient gels from ISC BioExpress, Kaysville, Utah), followed by transfer to nitrocellulose membranes. Membranes were incubated with mouse monoclonal anti-human FLIP (NF6 clone) (1:500 v/v) (Alexis, San Diego, Calif.), 1:1,000 (v/v) anti-aspase-8 clone 5F7 (Upstate) and mouse monoclonal anti-tubulin (1:2000 v/v) (Sigma Inc). Secondary antibodies consisted of horseradish peroxidase-conjugated goat anti-rabbit IgG or goat anti-mouse IgG (Bio-Rad, Hercules, Calif.). Detection was performed by the enhanced chemiluminescence method (Pierce, Rockford, Ill.).
Effects of sensitizing compounds on FLIP protein. Since FAS-sensitizing compounds 6094911 and 5809354 modulate the extrinsic pathway downstream of TNF-family death receptors but upstream of effector caspases, the effects of those compounds on expression of FLIP, an intracellular antiapoptotic protein that binds caspases-8 and -10 and is capable of suppressing death receptor signaling at a proximal point within the extrinsic pathway, was examined. For these experiments, PPC-1 cells were treated with sensitizing compounds in the presence or absence of CH-11 antibody, then cell lysates were prepared 24 hours later, and analyzed by immunoblotting for FLIP.
The levels of the short isoform of FLIP were less than 5% of total FLIP protein as measured by immunoblotting and quantitative densitometry. Therefore, given the very low levels of the short isoform, the analysis was limited to the effects of the compounds on the long isoform of FLIP.

FAS or TRAIL receptors = assay: Surface expression of death receptors by flow cytometry; format: cell-based; conditions: PPC-1 cells
From the text: Furthermore, since these compounds sensitize to both FAS and TRAIL, they presumably act distal to death receptors.

FLIP mRNA = FLIP mRNA quantitative RT-PCR; format: cell-based; conditions: responding and non-responding cell lines
Experimental: Quantitative RT-PCR. The cDNAs encoding the long isoform of FLIPL and GAPDH were amplified using the following primer pairs: 5′-[…]-3′ (forward primer for FLIP; SEQ ID NO:1), 5′-[…]-3′ (reverse primer for FLIP; SEQ ID NO:2), 5′-GAAGGTGAAGGTCGGAGTC-3′ (forward primer for GAPDH; SEQ ID NO:3), and 5′-[…]-3′ (reverse primer for GAPDH; SEQ ID NO:4). Equal amounts of cDNA for each sample were added to a prepared master mix (SYBR Green PCR Master mix, Applied Biosystems, Foster City, Calif.). Real-time quantitative PCR reactions were performed on an ABI Prism 7700 sequence detection system (Applied Biosystems, Foster City, Calif., USA). The relative abundance of a transcript was represented by the threshold cycle of amplification (CT), which is inversely correlated to the amount of target RNA/first strand cDNA being amplified. To normalize for equal amounts of the latter, the transcript levels of the putative housekeeping gene GAPDH were assayed. The comparative CT method was calculated as per manufacturer's instructions. To normalize the CT of FLIP for each sample, the following ratio was calculated: CT(FLIP)/CT(GAPDH). The expression level of FLIP relative to the baseline level was calculated as 2^−ΔΔCT(FLIP), where ΔCT is (average FLIP CT-average GAPDH CT) and ΔΔCT is (average ΔCT untreated sample−average ACT treated sample.
To determine whether the reductions in FLIP protein occurred at the level of mRNA or protein, FLIP mRNA expression was measured by Quantitative RT-PCR in cells treated with 5809354 or buffer control.

| SMILES | levels of FLIP protein (long isoform) (FLIP) | surface expression of FAS or TRAIL receptors (FAS or TRAIL receptors) | FLIP mRNA expression (FLIP mRNA) | levels of FLIP (FLIP; non-responding cell lines DU145 and MDA-MB-468) |
| --- | --- | --- | --- | --- |
| CCn1c(=N)n(CC(=O)c2cc(C(C)(C)C)c(O)c(C(C)(C)C)c2)c2ccccc21 [compound 5569100, 1-(3,5-Di-tert-butyl-4-hydroxy-phenyl)-2-(3-ethyl-2-imino-2,3-dihydro-benzoimidazol-1-yl)-ethanone] | decreased levels of FLIP protein; also recorded: reduced FLIP expression | did not change | did not reduce FLIP mRNA |  |
| O=C(CCCOc1ccc(Cl)cc1Cl)NO [compound 5809354, 4-(2,4-dichlorophenoxy)-N-hydroxybutanamide] | decreased levels of FLIP protein | did not change | reduced expression of FLIP mRNA; also recorded: decreased FLIP mRNA | decreased |
| CC(=O)CC(=O)Nc1ccc(Cl)c(C(F)(F)F)c1 [compound 6094911, N-[4-chloro-3-(trifluoromethyl)phenyl]-3-oxobutanamide] | did not alter levels of FLIP protein | did not change | did not reduce FLIP mRNA |  |
